Consider 1 substance from patent US7019132B2, “Porphyrin derivatives” (Kostarworld Co., Ltd., priority 2003, dated 2006).

Data set [1] concerns EMT6 cells. The data set is described as follows: Annexin V/PI staining for cell apoptosis. It is filed as cell-based, mouse. The conditions noted are these: PDT treatment group 0.2 μg/hr; above 90% of cells survived in control. From the text:
FIG. 4 presents the staining result with Annexin V/PI staining to study the action mechanism of cell apoptosis.

For a further data set, the system named is EMT6 cell. The data set is described as follows: MMP (mitochondrial membrane potential), JC-1 dye staining, FACS analysis. The conditions noted are these: after PDT, JC-1 staining. In kind it is cell-based, mouse. From the text:
FIG. 8 depicts the diagram determining MMP (mitochondrial membrane potential) within EMT6 cell after the treatment of PDT and JC-1 dye staining by FACS analysis.
On the technique in general: Flow cytometry measures light scatter and fluorescence of single cells or particles in a stream.

For a further data set, the system named is EMT6 tumor. Description: In vivo PDT assay, EMT6 breast cancer transplanted to BALB/c mouse. The method, then:
DH-1-180-3 as a test sample of the present invention and photofrin (photogem®) as a control group were used in test.
The tumor size of each mice was determined using by caliper at the interval of 2 or 3 days and the survival ratio of the mice according to tumor was also determined.

The nature of data set [2]: Acute toxicity test on ICR mice. It is filed as in vivo. The conditions noted are these: i.p. 20, 10 and 1 mg/kg, observed 24 hrs. The method, then:
(§1) The acute toxicity tests on ICR mice (mean body weight 25±5 g) and Sprague-Dawley rats (235±10 g) were performed using the compounds 1 and 10. Each group consisting of 3 mice or rats was administrated intraperitoneally with 20 mg/kg, 10 mg/kg and 1 mg/kg of test compounds or solvents (0.2 ml, i.p.), respectively and observed for 24 hrs.

Data set [3] in a line: Acute toxicity test on Sprague-Dawley rats. It is filed as in vivo. To be noted: i.p. 20, 10 and 1 mg/kg, observed 24 hrs. The method, then: as §1
For data set [4] the following is noted: λexcitation 508 nm, toluene, air-saturated, 21° C.
Description: The transforming activity of the target compounds into singlet oxygen state was measured by following methods.
The experimental assay was performed under air-saturated condition (99.999% ultra-purified gas) using toluene (Merck Co. HPLC grade) as a solvent, in the oxygen concentration in the solution of 2.1×10^−3 M at 21° C.
Data set [5] deals with mouse EMT6 cell line.
Description: (§2) Breast cancer cell line (EMT6; 1×10^6 cells/mouse) was cultured in culture medium (DMEM+10% FBS+100 units of Penicillin+100 μg streptomycin), treated with 0.25% Trypsin-EDTA to collect the cells and the number of cells was counted using by Trypan blue staining reagent.
(§3) Each 3 ml of cells was added to 35 mm of culture dish in the concentration of 2×10^5 cells/ml and incubated in 5% CO2 incubator for 24 hrs in order that the cells be arranged to be made a mono-layer.
(§4) Photosensitizing substance was added thereto and irradiation was subjected thereon at the strength of 1.2 J using by halogen lamp. The culture dishes were transferred to incubators and incubated.
(§5) The cell cytotoxicity caused by PDT was analyzed by MTT assay and the morphology of cells was observed by microscopy.
(§6) Conventional photosensitizer, i.e., photogem®, was used as a comparative control group and several factors such as the concentration of test samples, the irradiation strength of light and the absorption time of samples etc were modified in the present experiment.
In data set [6] the test system is EMT6 cells.
For data set [7], the system named is mouse EMT6 cell line. Description: Cell cytotoxicity caused by PDT on EMT6 cell line, MTT assay.
Description: as §2, §3, §4, §5, §6

With “methyl pheophorbide α triethylene glycol ester [DH-1-180-3]”, the dead cells with EMT6 cells [1] was in the range of 50 to 60%. Moreover, in the data set on EMT6 cell, the “MMP (mitochondrial membrane potential)” value is recorded as “remarkably decreased”. The “growing ratio of tumor” value in the data set with EMT6 tumor (0.4 and 0.8 mg/kg/mouse, light 1.2 J 3 h later, vs control and photofrin (2 mg/kg/mouse)) is “remarkably decreased”. Also, in the data set on EMT6 tumor (PDT treatment group vs control group), the survival ratio result is given as “extended”. In addition, in data set [2], the acute toxicity findings entry is “no treatment-related effects on mortality, clinical signs, body weight changes and gross findings”. In addition, the acute toxicity findings result in data set [3] was “no treatment-related effects on mortality, clinical signs, body weight changes and gross findings”. Further, in data set [4], the “transformed photon yield (singlet oxygen state)” value is listed as 0.60 (5%). In the data set on mouse EMT6 cell line [5], the “cell cytotoxicity without light” value is listed as “do not show cell cytotoxicty” and the “intensity of irradiating light for strongest cytotoxicity / optimum” value is listed as 1.2 J. In addition, in the data set on EMT6 cells [6], the “concentration showing the strongest cell cytotoxicity” value is given as “at least 0.4 μg” and the “duration time showing the strongest cell cytotoxicity” value is given as “at least 60 minutes”. This substance also yielded an optimum absorption time in the data set on mouse EMT6 cell line [7] (0.4 μg/ml, 1.2 J) of 1 h. This substance also displayed an LD100 in the data set with mouse EMT6 cell line [7] (EMT6, MTT assay, with light irradiation) of 0.4 µg. For the same substance, the “optimum concentration of photosensitizer used in PDT” value in the data set on mouse EMT6 cell line [7] (absorption 1 hour, 1.2 J, analysis at 24 hrs) was 0.4 µg/mL.
